Source: article PMC6472001, “Phenolic Compounds from Humulus lupulus as Natural Antimicrobial Products: New Weapons in the Fight against Methicillin Resistant Staphylococcus aureus, Leishmania mexicana and Trypanosoma brucei Strains” (Molecules, 2019)

Assays:
Assay type in all cases: cell-based
[1] = system: Stenotrophomonas maltophilia; assay: First screening, agar dilution MIC
Method: (§1) Clinical bacterial isolates from human samples collected in Lille (France) and some collection strains were used. The first screening step on pathogenic bacteria was carried out with crude hydro-alcoholic extracts of different hop parts (Table 1). The second screening was performed using sub-extracts of cones on Gram-positive bacteria, including methicillin-sensitive Staphylococcus aureus (MSSA) and methicillin-resistant Staphylococcus aureus […] (Table 2). These tests were carried out on Petri dishes, Mueller-Hinton Agar (MHA) (Oxoid, UK) was mixed with the plant extract solution in MeOH at 5% (solvent control: 5% MeOH). Final extract concentrations in Petri dishes ranged from 1250 to 4.9 µg/mL. A multi-headed inoculator allowed spotting bacterial strains at 10^5 CFU/mL in cysteinated Ringer (CR) solution (Merck®, France). Minimal Inhibitory Concentrations (MICs) were visually determined after 24 h of incubation at 37 °C.

Proteus mirabilis 11060 = assay: First screening, agar dilution MIC
Method: as §1

[2] = system: Streptococcus dysgalactiae T46C14; assay: First screening, agar dilution MIC
Method: as §1

[3] = system: Staphylococcus epidermidis 5001; assay: First screening, agar dilution MIC
Method: as §1

[4] = system: Staphylococcus epidermidis 10282; assay: First screening, agar dilution MIC
Method: as §1

[5] = system: Providencia stuartii 11038; assay: First screening, agar dilution MIC
Method: as §1

[6] = system: Pseudomonas aeruginosa 8131; assay: First screening, agar dilution MIC
Method: as §1

[7] = system: Klebsiella pneumoniae 11016; assay: First screening, agar dilution MIC
Method: as §1

[8] = system: Pseudomonas aeruginosa ATCC 27583; assay: First screening, agar dilution MIC
Method: as §1

[9] = system: Acinetobacter baumannii 9011; assay: First screening, agar dilution MIC
Method: as §1

[10] = system: Serratia marcescens 11057; assay: First screening, agar dilution MIC
Method: as §1

Corynebacterium T25-17 [11] = assay: First screening, agar dilution MIC
Method: as §1

[12] = system: Citrobacter freundii 11041; assay: First screening, agar dilution MIC
Method: as §1

[13] = system: Mycobacterium smegmatis 5003; assay: First screening, agar dilution MIC
Method: as §1

[14] = system: Enterococcus faecalis C159-6; assay: First screening, agar dilution MIC
Method: as §1

Escherichia coli 8157 = assay: First screening, agar dilution MIC
Method: as §1

[15] = system: Escherichia coli ATCC 25922; assay: First screening, agar dilution MIC
Method: as §1

[16] = system: Enterobacter cloacae 11050; assay: First screening, agar dilution MIC
Method: as §1

[17] = system: Streptococcus agalactiae T53C2; assay: First screening, agar dilution MIC
Method: as §1

[18] = system: Staphylococcus lugdunensis T26A3; assay: First screening, agar dilution MIC
Method: as §1

[19] = system: Enterobacter cloacae 11051; assay: First screening, agar dilution MIC
Method: as §1

[20] = system: Staphylococcus aureus 8147; assay: First screening, agar dilution MIC
Method: as §1

[21] = system: Acinetobacter baumannii 9010; assay: First screening, agar dilution MIC
Method: as §1

Escherichia coli 8138 = assay: First screening, agar dilution MIC
Method: as §1

Enterococcus sp. 8153 = assay: First screening, agar dilution MIC
Method: as §1

[22] = system: Citrobacter freundii 11042; assay: First screening, agar dilution MIC
Method: as §1

Salmonella sp. 11033 = assay: First screening, agar dilution MIC
Method: as §1

[23] = system: Klebsiella pneumoniae 11017; assay: First screening, agar dilution MIC
Method: as §1

[24] = system: Staphylococcus warneri T12A12; assay: First screening, agar dilution MIC
Method: as §1

[25] = system: Serratia marcescens 11056; assay: First screening, agar dilution MIC
Method: as §1

[26] = system: Enterobacter cloacae 11053; assay: First screening, agar dilution MIC
Method: as §1

[27] = system: Streptococcus agalactiae T25-7; assay: First screening, agar dilution MIC
Method: as §1

[28] = system: Staphylococcus aureus 8146; assay: First screening, agar dilution MIC
Method: as §1

[29] = system: Staphylococcus epidermidis 5001; assay: Second screening, agar dilution MIC; conditions: Table 2
Method: as §1

[30] = system: Enterococcus faecalis T39-C11; assay: Second screening, agar dilution MIC
Method: as §1

[31] = system: Streptococcus agalactiae T25.7; assay: Second screening, agar dilution MIC
Method: as §1

[32] = system: Staphylococcus pettenkoferi T3.3; assay: Second screening, agar dilution MIC
Method: as §1

[33] = system: Streptococcus agalactiae 13225; assay: Second screening, agar dilution MIC
Method: as §1

[34] = system: Staphylococcus aureus CIP 224; assay: Second screening, agar dilution MIC
Method: as §1

[35] = system: Staphylococcus aureus T1.1; assay: Second screening, agar dilution MIC
Method: as §1

[36] = system: Enterococcus faecalis T26-B7; assay: Second screening, agar dilution MIC
Method: as §1

Corynebacterium T25-17 [37] = assay: Second screening, agar dilution MIC; conditions: Table 2
Method: as §1

[38] = system: Streptococcus agalactiae T38.2; assay: Second screening, agar dilution MIC
Method: as §1

[39] = system: Staphylococcus aureus T25.3; assay: Second screening, agar dilution MIC
Method: as §1

[40] = system: Enterococcus faecalis T34-2; assay: Second screening, agar dilution MIC
Method: as §1

[41] = system: Staphylococcus lugdunensis T26A3; assay: Second screening, agar dilution MIC; conditions: Table 2
Method: as §1

[42] = system: Staphylococcus aureus T26A4; assay: Second screening, agar dilution MIC
Method: as §1

[43] = system: Enterococcus faecalis T37A4; assay: Second screening, agar dilution MIC
Method: as §1

[44] = system: Streptococcus agalactiae 13226; assay: Second screening, agar dilution MIC
Method: as §1

[45] = system: Streptococcus agalactiae T40A2; assay: Second screening, agar dilution MIC
Method: as §1

[46] = system: Staphylococcus aureus T36B1; assay: Second screening, agar dilution MIC
Method: as §1

[47] = system: Staphylococcus aureus 8147; assay: Second screening, agar dilution MIC; conditions: Table 2
Method: as §1

[48] = system: Staphylococcus saprophyticus 08237; assay: Second screening, agar dilution MIC
Method: as §1

[49] = system: Staphylococcus aureus T47A12; assay: Second screening, agar dilution MIC
Method: as §1

[50] = system: Staphylococcus aureus T25.9; assay: Second screening, agar dilution MIC
Method: as §1

[51] = system: Staphylococcus aureus T25.10; assay: Second screening, agar dilution MIC
Method: as §1

[52] = system: Staphylococcus aureus T6.7; assay: Second screening, agar dilution MIC
Method: as §1

[53] = system: Staphylococcus aureus T28.1; assay: Second screening, agar dilution MIC
Method: as §1

CNC(C)C1CCC(N)C(OC2C(N)CC(N)C(OC3OCC(C)(O)C(NC)C3O)C2O)O1 (stereo not shown) [GEN, Gentamicin]
Susceptibility to GEN [1]: S (Gentamicin (GEN) S ≤ 4) | Susceptibility to GEN (Proteus mirabilis 11060): S (Gentamicin (GEN) S ≤ 4) | Susceptibility to GEN [2]: S (Gentamicin (GEN) S ≤ 4) | Susceptibility to GEN [3]: S (Gentamicin (GEN) S ≤ 4) | Susceptibility to GEN [4]: S (Gentamicin (GEN) S ≤ 4) | Susceptibility to GEN [5]: S (Gentamicin (GEN) S ≤ 4) | Susceptibility to GEN [6]: S (Gentamicin (GEN) S ≤ 4) | Susceptibility to GEN [7]: S (Gentamicin (GEN) S ≤ 4) | Susceptibility to GEN [8]: R (R > 8) | Susceptibility to GEN [9]: R (R > 8) | Susceptibility to GEN [10]: R (R > 8) | Susceptibility to GEN (Corynebacterium T25-17 [11]): S (Gentamicin (GEN) S ≤ 4) | Susceptibility to GEN [12]: S (Gentamicin (GEN) S ≤ 4) | Susceptibility to GEN [13]: S (Gentamicin (GEN) S ≤ 4) | Susceptibility to GEN [14]: R (R > 8) | Susceptibility to GEN (Escherichia coli 8157): S (Gentamicin (GEN) S ≤ 4) | Susceptibility to GEN [15]: S (Gentamicin (GEN) S ≤ 4) | Susceptibility to GEN [16]: S (Gentamicin (GEN) S ≤ 4) | Susceptibility to GEN [17]: S (Gentamicin (GEN) S ≤ 4) | Susceptibility to GEN [18]: S (Gentamicin (GEN) S ≤ 4) | Susceptibility to GEN [19]: R (R > 8) | Susceptibility to GEN [20]: S (Gentamicin (GEN) S ≤ 4) | Susceptibility to GEN [21]: S (Gentamicin (GEN) S ≤ 4) | Susceptibility to GEN (Escherichia coli 8138): S (Gentamicin (GEN) S ≤ 4) | Susceptibility to GEN (Enterococcus sp. 8153): R (R > 8) | Susceptibility to GEN [22]: S (Gentamicin (GEN) S ≤ 4) | Susceptibility to GEN (Salmonella sp. 11033): S (Gentamicin (GEN) S ≤ 4) | Susceptibility to GEN [23]: S (Gentamicin (GEN) S ≤ 4) | Susceptibility to GEN [24]: S (Gentamicin (GEN) S ≤ 4) | Susceptibility to GEN [25]: S (Gentamicin (GEN) S ≤ 4) | Susceptibility to GEN [26]: S (Gentamicin (GEN) S ≤ 4) | Susceptibility to GEN [27]: R (R > 8) | Susceptibility to GEN [28]: S (Gentamicin (GEN) S ≤ 4) | Susceptibility to GEN [29]: S (Gentamicin (GEN) S ≤ 4) | Susceptibility to GEN [30]: S (Gentamicin (GEN) S ≤ 4) | Susceptibility to GEN [31]: I | Susceptibility to GEN [32]: S (Gentamicin (GEN) S ≤ 4) | Susceptibility to GEN [33]: S (Gentamicin (GEN) S ≤ 4) | Susceptibility to GEN [34]: S (Gentamicin (GEN) S ≤ 4) | Susceptibility to GEN [35]: S (Gentamicin (GEN) S ≤ 4) | Susceptibility to GEN [36]: R (R > 8) | Susceptibility to GEN (Corynebacterium T25-17 [37]): S (Gentamicin (GEN) S ≤ 4) | Susceptibility to GEN [38]: S (Gentamicin (GEN) S ≤ 4) | Susceptibility to GEN [39]: S (Gentamicin (GEN) S ≤ 4) | Susceptibility to GEN [40]: S (Gentamicin (GEN) S ≤ 4) | Susceptibility to GEN [41]: S (Gentamicin (GEN) S ≤ 4) | Susceptibility to GEN [42]: S (Gentamicin (GEN) S ≤ 4) | Susceptibility to GEN [43]: R (R > 8) | Susceptibility to GEN [44]: S (Gentamicin (GEN) S ≤ 4) | Susceptibility to GEN [45]: S (Gentamicin (GEN) S ≤ 4) | Susceptibility to GEN [46]: S (Gentamicin (GEN) S ≤ 4) | Susceptibility to GEN [47]: S (Gentamicin (GEN) S ≤ 4) | Susceptibility to GEN [48]: S (Gentamicin (GEN) S ≤ 4) | Susceptibility to GEN [49]: S (Gentamicin (GEN) S ≤ 4) | Susceptibility to GEN [50]: S (Gentamicin (GEN) S ≤ 4) | Susceptibility to GEN [51]: S (Gentamicin (GEN) S ≤ 4) | Susceptibility to GEN [52]: S (Gentamicin (GEN) S ≤ 4) | Susceptibility to GEN [53]: S (Gentamicin (GEN) S ≤ 4)
